Assay results published in patent US12486273B2 (Hoffmann-La Roche Inc., priority 2019, dated 2025).

Legend:
[1] = Human microsomal stability assay; type: in vitro ADME; details: human liver microsomes, 1 μM test compound, 37° C., pH 7.4
Procedure: Human Microsomal Stability Assay
Human liver microsomes (Cat. NO.: 452117, Corning, USA) were preincubated with test compound for 10 minutes at 37° C. in 100 mM potassium phosphate buffer, pH 7.4. The reactions were initiated by adding NADPH regenerating system. The final incubation mixtures contained 1 μM test compound, 0.5 mg/mL liver microsomal protein, 1 mM MgCl2, 1 mM NADP, 1 unit/mL isocitric dehydrogenase and 6 mM isocitric acid in 100 mM potassium phosphate buffer, pH 7.4. After incubation times of 0, 3, 6, 9, 15 and 30 minutes at 37° C., 300 μL of cold ACN (including internal standard) was added to 100 μL incubation mixture to terminate the reaction. Following precipitation and centrifugation, 100 μL supernatant will be taken out and added 300 μL water. The amount of compound remaining in the samples was determined by LC-MS/MS. Controls of no NADPH regenerating system at zero and 30 minutes were also prepared and analyzed. The results were categorized as: low (<7.0 mL/min/kg), medium (7.0-16.2 mL/min/kg) and high (16.2-23.2 mL/min/kg).

human TLR8 = human TLR8 (Homo sapiens (Human), UniProt Q9NR97); experiment: HEK293-Blue-hTLR-8 cells assay; type: cell-based; details: HEK293-Blue-hTLR8 cells, R848 stimulation, 20 hrs, SEAP reporter; read-out: HEK/hTLR8 IC50
From the text: HEK293-Blue-hTLR-8 Cells Assay:
(§1) A stable HEK293-Blue-hTLR-8 cell line was purchased from InvivoGen (Cat. #: hkb-htlr8, San Diego, California, USA). These cells were originally designed for studying the stimulation of human TLR8 by monitoring the activation of NF-κB. A SEAP (secreted embryonic alkaline phosphatase) reporter gene was placed under the control of the IFN-β minimal promoter fused to five NF-κB and AP-1-binding sites. The SEAP was induced by activating NF-κB and AP-1 via stimulating HEK-Blue hTLR8 cells with TLR8 ligands. Therefore the reporter expression was declined by TLR8 antagonist under the stimulation of a ligand, such as R848, for incubation of 20 hrs. The cell culture supernatant SEAP reporter activity was determined using QUANTI-Blue™ kit (Cat. #: rep-Qb1, Invivogen, San Diego, Ca, USA) at a wavelength of 640 nm, a detection medium that turns purple or blue in the presence of alkaline phosphatase.
HEK293-Blue-hTLR8 cells were incubated at a density of 250,000-450,000 cells/mL in a volume of 170 μL in a 96-well plate in Dulbecco's Modified Eagle's medium (DMEM) containing 4.5 g/L glucose, 50 U/mL penicillin, […], […], 2 mM L-glutamine, 10% (v/v) heat-inactivated fetal bovine serum with addition of 20 μL test compound in a serial dilution in the presence of final DMSO at 1% and 10 μL of 60 μM R848 in above DMEM, perform incubation under 37° C. in a CO2 incubator for 20 hrs. Then 20 μL of the supernatant from each well was incubated with 180 μL Quanti-blue substrate solution at 37° C. for […] and the absorbance was read at 620˜655 nm using a spectrophotometer. The signaling pathway that TLR8 activation leads to downstream NF-κB activation has been widely accepted, and therefore similar reporter assay was modified for evaluating TLR8 antagonist.

human TLR9 = human TLR9 (Homo sapiens (Human), UniProt Q9NR96); experiment: HEK293-Blue-hTLR-9 cells assay; type: cell-based; details: HEK293-Blue-hTLR9 cells, ODN2006 stimulation, 20 hrs, SEAP reporter; read-out: HEK/hTLR9 IC50
From the text: HEK293-Blue-hTLR-9 Cells Assay:
A stable HEK293-Blue-hTLR-9 cell line was purchased from InvivoGen (Cat. #: hkb-htlr9, San Diego, California, USA). These cells were originally designed for studying the stimulation of human TLR9 by monitoring the activation of NF-κB. A SEAP (secreted embryonic alkaline phosphatase) reporter gene was placed under the control of the IFN-β minimal promoter fused to five NF-κB and AP-1-binding sites. The SEAP was induced by activating NF-κB and AP-via stimulating HEK-Blue hTLR9 cells with TLR9 ligands. Therefore the reporter expression was declined by TLR9 antagonist under the stimulation of a ligand, such as ODN2006 (Cat. #: tlrl-2006-1, Invivogen, San Diego, California, USA), for incubation of 20 hrs. The cell culture supernatant SEAP reporter activity was determined using QUANTI-Blue™ kit (Cat. #: rep-qb1, Invivogen, San Diego, California, USA) at a wavelength of 640 nm, a detection medium that turns purple or blue in the presence of alkaline phosphatase.
(§2) HEK293-Blue-hTLR9 cells were incubated at a density of 250,000˜450,000 cells/mL in a volume of 170 μL in a 96-well plate in Dulbecco's Modified Eagle's medium (DMEM) containing 4.5 g/L glucose, 50 U/mL penicillin, […], […], 2 mM L-glutamine, 10% (v/v) heat-inactivated fetal bovine serum with addition of 20 μL test compound in a serial dilution in the presence of final DMSO at 1% and 10 μL of 20 μM ODN2006 in above DMEM, perform incubation under 37° C. in a CO2 incubator for 20 hrs. Then 20 μL of the supernatant from each well was incubated with 180 μL Quanti-blue substrate solution at 37° C. for 2 h and the absorbance was read at 620-655 nm using a spectrophotometer. The signaling pathway that TLR9 activation leads to downstream NF-κB activation has been widely accepted, and therefore similar reporter assay was modified for evaluating TLR9 antagonist.

human TLR7 = human TLR7 (Homo sapiens (Human), UniProt Q9NYK1); experiment: HEK293-Blue-hTLR-7 cells assay; type: cell-based; details: HEK293-Blue-hTLR7 cells, R848 stimulation, 20 hrs, SEAP reporter; read-out: HEK/hTLR7 IC50
From the text: HEK293-BLUE-hTLR-7 CELLS ASSAY:
as §1, with “HEK293-Blue-hTLR-7” for “HEK293-Blue-hTLR-8”, “hkb-htlr7,” for “hkb-htlr8,”, “TLR7” for “TLR8”, “hTLR7” for “hTLR8”, “R848 (Resiquimod),” for “R848,”, “rep-qb1,” for “rep-Qb1,”
as §2, with “HEK293-Blue-hTLR7 cells” for “HEK293-Blue-hTLR9 cells”, “μM R848” for “μM ODN2006”, “2 hrs” for “2 h”, “that TLR7” for “that TLR9”, “evaluating TLR7” for “evaluating TLR9”

human TLR7, sequence (Q9NYK1 27-1049): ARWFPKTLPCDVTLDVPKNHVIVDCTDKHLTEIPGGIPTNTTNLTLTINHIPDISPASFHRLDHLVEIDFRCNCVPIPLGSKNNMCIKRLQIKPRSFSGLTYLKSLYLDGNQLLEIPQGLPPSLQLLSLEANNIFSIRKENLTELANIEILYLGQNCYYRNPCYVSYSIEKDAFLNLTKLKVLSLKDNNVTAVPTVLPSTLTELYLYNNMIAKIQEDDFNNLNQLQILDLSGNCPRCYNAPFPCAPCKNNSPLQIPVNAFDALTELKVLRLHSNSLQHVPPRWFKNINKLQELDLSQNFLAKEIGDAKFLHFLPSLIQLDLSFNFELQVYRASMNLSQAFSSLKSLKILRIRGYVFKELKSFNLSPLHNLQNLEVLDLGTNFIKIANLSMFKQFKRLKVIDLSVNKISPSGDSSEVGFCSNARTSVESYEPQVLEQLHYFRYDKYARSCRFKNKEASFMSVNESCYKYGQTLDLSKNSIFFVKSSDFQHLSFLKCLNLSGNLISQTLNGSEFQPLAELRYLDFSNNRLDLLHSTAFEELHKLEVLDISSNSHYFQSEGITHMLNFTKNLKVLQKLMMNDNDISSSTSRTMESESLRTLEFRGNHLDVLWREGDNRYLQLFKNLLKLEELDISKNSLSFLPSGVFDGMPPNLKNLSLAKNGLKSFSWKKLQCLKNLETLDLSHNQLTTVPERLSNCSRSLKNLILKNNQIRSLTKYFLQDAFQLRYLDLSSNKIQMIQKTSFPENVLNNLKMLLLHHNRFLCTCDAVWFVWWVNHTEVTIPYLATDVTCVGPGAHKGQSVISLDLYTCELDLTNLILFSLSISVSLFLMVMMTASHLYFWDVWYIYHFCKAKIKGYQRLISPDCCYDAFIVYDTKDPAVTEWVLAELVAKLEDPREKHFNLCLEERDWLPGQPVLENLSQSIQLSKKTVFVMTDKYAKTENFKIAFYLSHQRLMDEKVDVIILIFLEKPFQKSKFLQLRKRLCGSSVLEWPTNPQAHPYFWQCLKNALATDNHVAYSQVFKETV
human TLR8, sequence (Q9NR97 27-1041): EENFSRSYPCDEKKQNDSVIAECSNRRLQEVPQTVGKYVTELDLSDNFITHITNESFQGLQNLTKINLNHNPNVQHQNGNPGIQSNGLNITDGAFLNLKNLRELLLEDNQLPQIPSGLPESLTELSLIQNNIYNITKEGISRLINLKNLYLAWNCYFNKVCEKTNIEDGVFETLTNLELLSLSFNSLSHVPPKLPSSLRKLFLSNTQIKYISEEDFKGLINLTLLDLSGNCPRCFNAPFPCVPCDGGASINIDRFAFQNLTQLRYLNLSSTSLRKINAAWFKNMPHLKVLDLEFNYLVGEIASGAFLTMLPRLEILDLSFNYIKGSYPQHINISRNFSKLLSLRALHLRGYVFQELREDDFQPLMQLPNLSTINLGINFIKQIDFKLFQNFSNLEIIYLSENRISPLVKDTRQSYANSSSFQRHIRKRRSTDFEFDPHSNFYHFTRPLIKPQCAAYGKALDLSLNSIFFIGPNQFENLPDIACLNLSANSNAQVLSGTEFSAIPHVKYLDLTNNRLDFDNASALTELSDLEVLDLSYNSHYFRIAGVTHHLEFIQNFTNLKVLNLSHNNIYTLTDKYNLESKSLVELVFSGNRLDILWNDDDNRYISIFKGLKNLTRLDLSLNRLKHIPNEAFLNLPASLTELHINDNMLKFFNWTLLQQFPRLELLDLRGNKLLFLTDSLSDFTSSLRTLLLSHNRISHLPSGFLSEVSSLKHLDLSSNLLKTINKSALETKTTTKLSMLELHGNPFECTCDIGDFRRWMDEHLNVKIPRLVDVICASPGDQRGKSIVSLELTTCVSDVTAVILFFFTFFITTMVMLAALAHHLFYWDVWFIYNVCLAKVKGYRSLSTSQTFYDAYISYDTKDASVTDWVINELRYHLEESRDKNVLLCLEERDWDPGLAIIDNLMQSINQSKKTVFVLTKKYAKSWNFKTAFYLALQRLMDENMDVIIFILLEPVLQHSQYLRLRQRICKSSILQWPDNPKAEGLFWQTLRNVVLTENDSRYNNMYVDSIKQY
human TLR9, sequence (Q9NR96 26-1032): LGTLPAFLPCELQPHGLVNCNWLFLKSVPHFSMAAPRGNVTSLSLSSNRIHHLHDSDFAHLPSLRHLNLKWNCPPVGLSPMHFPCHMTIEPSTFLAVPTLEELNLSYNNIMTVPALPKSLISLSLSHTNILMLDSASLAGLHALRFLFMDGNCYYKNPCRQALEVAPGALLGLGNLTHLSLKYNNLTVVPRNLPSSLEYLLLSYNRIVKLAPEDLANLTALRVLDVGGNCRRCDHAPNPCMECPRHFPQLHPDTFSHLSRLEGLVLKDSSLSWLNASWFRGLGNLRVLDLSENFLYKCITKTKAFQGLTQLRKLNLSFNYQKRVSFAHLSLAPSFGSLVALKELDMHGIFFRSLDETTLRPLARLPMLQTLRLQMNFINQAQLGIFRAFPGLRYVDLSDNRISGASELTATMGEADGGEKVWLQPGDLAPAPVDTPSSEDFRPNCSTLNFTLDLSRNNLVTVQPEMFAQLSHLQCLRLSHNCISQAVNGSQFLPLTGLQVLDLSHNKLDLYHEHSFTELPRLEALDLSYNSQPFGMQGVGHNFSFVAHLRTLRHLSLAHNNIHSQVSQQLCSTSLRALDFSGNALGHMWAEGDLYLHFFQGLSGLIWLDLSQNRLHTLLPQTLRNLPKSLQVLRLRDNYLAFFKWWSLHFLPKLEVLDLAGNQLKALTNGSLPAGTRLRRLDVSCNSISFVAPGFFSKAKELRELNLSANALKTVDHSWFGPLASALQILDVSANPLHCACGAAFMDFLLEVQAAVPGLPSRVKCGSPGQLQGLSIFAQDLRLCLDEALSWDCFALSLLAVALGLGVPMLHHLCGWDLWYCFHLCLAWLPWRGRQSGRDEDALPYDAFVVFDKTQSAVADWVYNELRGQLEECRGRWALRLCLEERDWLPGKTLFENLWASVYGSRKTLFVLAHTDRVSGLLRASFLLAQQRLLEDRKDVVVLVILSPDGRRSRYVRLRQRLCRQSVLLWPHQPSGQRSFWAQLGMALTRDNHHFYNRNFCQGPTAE

Row | SMILES | CL (h) [1] [mL/min/kg] | IC50 (human TLR8) [nM] | IC50 (human TLR9) [nM] | IC50 (human TLR7) [nM]
1 | C[C@@H]1NCCc2cnc(N[C@@H]3C[C@H]4CN(c5ccc(C#N)c6ncccc56)C[C@@H](C)N4C3)cc21 [Example 9A, 5-[(4R,7R,8aS)-4-methyl-7-[[(5S)-5-methyl-5,6,7,8-tetrahydro-2,6-naphthyridin-3-yl]amino]-3,4,6,7,8,8a-hexahydro-1H-pyrrolo[1,2-a]pyrazin-2-yl]quinoline-8-carbonitrile] | 8.4 | 8.6 | 65.7 | 18.2
2 | C[C@@H]1CN(c2ccc(C#N)c3ncccc23)C[C@@H]2C[C@@H](Nc3cc4c(cn3)CCN[C@@H]4C)CN21 [Example 9B, 5-[(4R,7R,8aS)-4-methyl-7-[[(5R)-5-methyl-5,6,7,8-tetrahydro-2,6-naphthyridin-3-yl]amino]-3,4,6,7,8,8a-hexahydro-1H-pyrrolo[1,2-a]pyrazin-2-yl]quinoline-8-carbonitrile] | 9.6 | 4.7 | 42.1 | 13.3
3 | [2H]c1ccc2c(N3C[C@@H]4C[C@H](N5CC6CCC(C5)N6)CN4[C@H](C)C3)ccc(C#N)c2n1 [Example 16, 2-Deuterio-5-[(4R,7S,8aS)-7-(3,8-diazabicyclo[3.2.1]octan-3-yl)-4-methyl-3,4,6,7,8,8a-hexahydro-1H-pyrrolo[1,2-a]pyrazin-2-yl]quinoline-8-carbonitrile] | 7.2 | 4.7 | 40.9 | 8.1
4 | [2H]c1ccc2c(N3C[C@@H]4C[C@H](N5CC(C)(N)C5)CN4[C@H](C)C3)ccc(C#N)c2n1 [Example 17, 5-[(4R,7S,8aS)-7-(3-amino-3-methyl-azetidin-1-yl)-4-methyl-3,4,6,7,8,8a-hexahydro-1H-pyrrolo[1,2-a]pyrazin-2-yl]-2-deuterio-quinoline-8-carbonitrile] | – | 14.7 | 175 | 11.3
5 | [2H]c1ccc2c(N3C[C@@H]4C[C@H](N5CCC(C)(N)CC5)CN4[C@H](C)C3)ccc(C#N)c2n1 [Example 18, 5-[(4R,7S,8aS)-7-(4-amino-4-methyl-1-piperidyl)-4-methyl-3,4,6,7,8,8a-hexahydro-1H-pyrrolo[1,2-a]pyrazin-2-yl]-2-deuterio-quinoline-8-carbonitrile] | 9.8 | 12.3 | 46.7 | 16.4
6 | [2H]c1ccc2c(N3C[C@@H]4C[C@H](N5CCC(C)(N)C5)CN4[C@H](C)C3)ccc(C#N)c2n1 (stereo partly drawn) [Example 19, 2-Deuterio-5-[(4R,7S,8aS)-7-(3-amino-3-methyl-pyrrolidin-1-yl)-4-methyl-3,4,6,7,8,8a-hexahydro-1H-pyrrolo[1,2-a]pyrazin-2-yl]quinoline-8-carbonitrile] | 8.6 | 8.9 | 210 | 19.9
7 | [2H]c1ccc2c(N3C[C@@H]4C[C@H](N5CCC6(CCCNC6)CC5)CN4[C@H](C)C3)ccc(C#N)c2n1 [Example 21, 2-Deuterio-5-[(4R,7S,8aS)-7-(2,9-diazaspiro[5.5]undecan-9-yl)-4-methyl-3,4,6,7,8,8a-hexahydro-1H-pyrrolo[1,2-a]pyrazin-2-yl]quinoline-8-carbonitrile] | – | 10.3 | 45.1 | 30.4
8 | [2H]c1ccc2c(N3C[C@@H]4C[C@H](N5CC(n6ncc7c6CN[C@H](C)C7)C5)CN4[C@H](C)C3)ccc(C#N)c2n1 [Example 22A, 5-[(4R,7S,8aS)-4-methyl-7-[3-[(5R)-5-methyl-4,5,6,7-tetrahydropyrazolo[3,4-c]pyridin-1-yl]azetidin-1-yl]-3,4,6,7,8,8a-hexahydro-1H-pyrrolo[1,2-a]pyrazin-2-yl]-2-deuterio-quinoline-8-carbonitrile] | 8.2 | 14.5 | 32.1 | 10.3
9 | [2H]c1ccc2c(N3C[C@@H]4C[C@H](n5ncc6c5CNCC6)CN4[C@H](C)C3)ccc(C#N)c2n1 [Example 23A, 2-Deuterio-5-[(4R,7S,8aS)-4-methyl-7-(4,5,6,7-tetrahydropyrazolo[3,4-c]pyridin-1-yl)-3,4,6,7,8,8a-hexahydro-1H-pyrrolo[1,2-a]pyrazin-2-yl]quinoline-8-carbonitrile] | 8.1 | 13.8 | 407 | 10.5
10 | [2H]c1ccc2c(N3C[C@@H]4C[C@H](n5cc6c(n5)CNCC6)CN4[C@H](C)C3)ccc(C#N)c2n1 [Example 23B, 2-deuterio-5-[(4R,7S,8aS)-4-methyl-7-(4,5,6,7-tetrahydropyrazolo[3,4-c]pyridin-2-yl)-3,4,6,7,8,8a-hexahydro-1H-pyrrolo[1,2-a]pyrazin-2-yl]quinoline-8-carbonitrile] | 6.2 | 3.4 | 154 | 12
